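GI50 = concentration required for 50% inhibition of growth. TGI marks complete inhibition of growth.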
What was measured:
Test in all cases: NCI anticancer screen, dose series, 384-well format
NCI-H226 lung = system: NCI-H226 lung
NCI-H23 lung = system: NCI-H23 lung
NCI-H322M lung = system: NCI-H322M lung
NCI-H460 NSCLC = system: NCI-H460 NSCLC
NCI-H522 lung = system: NCI-H522 lung
NCI/ADR-RES ovarian = system: NCI/ADR-RES ovarian
OVCAR-3 ovarian = system: OVCAR-3 ovarian
OVCAR-4 ovarian = system: OVCAR-4 ovarian
OVCAR-5 ovarian = system: OVCAR-5 ovarian
OVCAR-8 ovarian = system: OVCAR-8 ovarian
PC-3 prostate = system: PC-3 prostate
RPMI-8226 leukemia = system: RPMI-8226 leukemia
RXF 393 renal = system: RXF 393 renal
SF-268 CNS = system: SF-268 CNS
SF-295 CNS = system: SF-295 CNS
SF-539 CNS = system: SF-539 CNS
SK-MEL-28 melanoma = system: SK-MEL-28 melanoma
SK-MEL-5 melanoma = system: SK-MEL-5 melanoma
SK-OV-3 ovarian = system: SK-OV-3 ovarian
SN12C renal = system: SN12C renal
SNB-19 CNS = system: SNB-19 CNS
SNB-75 CNS = system: SNB-75 CNS
SW-620 colon = system: SW-620 colon
T-47D breast = system: T-47D breast
TK-10 renal = system: TK-10 renal
U251 glioblastoma = system: U251 glioblastoma
UACC-257 melanoma = system: UACC-257 melanoma
UACC-62 melanoma = system: UACC-62 melanoma
UO-31 renal = system: UO-31 renal

For `CCN1CCN(c2ccc(Nc3cc(N(C)C(=O)Nc4c(Cl)c(OC)cc(OC)c4Cl)ncn3)cc2)CC1`, the GI50 (NCI-H226 lung) was 24.6 nM, the TGI (NCI-H226 lung) was 5810 nM and the GI50 (NCI-H23 lung) was 2340 nM. It also gave a TGI (NCI-H23 lung) of 6210 nM, a GI50 (NCI-H322M lung) of 2300 nM and a TGI (NCI-H322M lung) of 6250 nM. The GI50 (NCI-H460 NSCLC) was 1230 nM, the TGI (NCI-H460 NSCLC) was 2530 nM and the GI50 (NCI-H522 lung) was 475 nM. For the same compound, the TGI (NCI-H522 lung) was 1460 nM, the GI50 (NCI/ADR-RES ovarian) was 2160 nM and the TGI (NCI/ADR-RES ovarian) was 4890 nM. It also gave a GI50 (OVCAR-3 ovarian) of 1040 nM, a TGI (OVCAR-3 ovarian) of 2340 nM and a GI50 (OVCAR-4 ovarian) of 1280 nM. The TGI (OVCAR-4 ovarian) was 3360 nM, the GI50 (OVCAR-5 ovarian) was 2180 nM and the TGI (OVCAR-5 ovarian) was 5140 nM. For the same compound, the GI50 (OVCAR-8 ovarian) was 1770 nM, the TGI (OVCAR-8 ovarian) was 3380 nM and the GI50 (PC-3 prostate) was 2040 nM. For the same compound, the TGI (PC-3 prostate) was 4950 nM, the GI50 (RPMI-8226 leukemia) was 1900 nM and the TGI (RPMI-8226 leukemia) was 3330 nM. It also gave a GI50 (RXF 393 renal) of 1290 nM, a TGI (RXF 393 renal) of 2590 nM and a GI50 (SF-268 CNS) of 1110 nM. The TGI (SF-268 CNS) was 2610 nM, the GI50 (SF-295 CNS) was 1750 nM and the TGI (SF-295 CNS) was 3160 nM. The GI50 (SF-539 CNS) was 1420 nM, the TGI (SF-539 CNS) was 2830 nM and the GI50 (SK-MEL-28 melanoma) was 1860 nM. It also gave a TGI (SK-MEL-28 melanoma) of 3280 nM, a GI50 (SK-MEL-5 melanoma) of 1300 nM and a TGI (SK-MEL-5 melanoma) of 2580 nM. It also gave a GI50 (SK-OV-3 ovarian) of 365 nM, a TGI (SK-OV-3 ovarian) of 1360 nM and a GI50 (SN12C renal) of 753 nM. The TGI (SN12C renal) was 2200 nM, the GI50 (SNB-19 CNS) was 2500 nM and the TGI (SNB-19 CNS) was 7510 nM. The GI50 (SNB-75 CNS) was 193 nM, the TGI (SNB-75 CNS) was 2290 nM and the GI50 (SW-620 colon) was 1840 nM. The TGI (SW-620 colon) was 3470 nM, the GI50 (T-47D breast) was 453 nM and the TGI (T-47D breast) was 1420 nM. It also gave a GI50 (TK-10 renal) of 1550 nM, a TGI (TK-10 renal) of 3440 nM and a GI50 (U251 glioblastoma) of 1460 nM. The TGI (U251 glioblastoma) was 2800 nM, the GI50 (UACC-257 melanoma) was 1610 nM and the TGI (UACC-257 melanoma) was 2960 nM. For the same compound, the GI50 (UACC-62 melanoma) was 1720 nM, the TGI (UACC-62 melanoma) was 3130 nM and the GI50 (UO-31 renal) was 1370 nM. For the same compound, the TGI (UO-31 renal) was 2670 nM.

Source: PubChem BioAssay (NCI)
